Data: patent publication US20240016779A1, “COMPOSITION FOR PREVENTING AND TREATING INFLAMMATORY DISEASE AND AUTOIMMUNE DISEASES AND NON-ALCOHOLIC FATTY LIVER DISEASE, COMPRISING EXTRACT DERIVED FROM CENTIPEDA MINIMA” (D-NATURE CO., LTD., priority 2020, published 2024)

Legend:
Type in all cases: cell-based
3T3-L1 cells [1] = assay: Adipocyte differentiation inhibitory effect; conditions: tested 0.16, 0.31, 0.63, 1.25 μg/ml
Description: To confirm the effect of the Centipeda minima extract for inhibiting non-alcoholic steatohepatitis, an experiment was performed on preadipocytes according to an inflammatory disease treatment agent.
Specifically, the evaluation was performed by using 3T3-L1 cells, which are preadipocytes, and after the 3T3-L1 cells were treated with each of JAKI and elafibranor at concentrations of 0 μg/ml, 0.16 μg/ml, 0.31 μg/ml, 0.63 μg/ml, and 1.25 μg/ml and then cultured for 6 hours under the same conditions, the changes of the 3T3-L1 cells were analyzed.

3T3-L1 cells [2] = assay: TNF-a induced IL-6 production in preadipocytes; conditions: 0.16 to 2.5 μg/ml
Description: To confirm the non-alcoholic steatohepatitis inhibitory effect of the Centipeda minima extract, an experiment was performed with INF-a induced IL-6 production in preadipocytes according to an inflammatory disease treatment agent.
(§1) Specifically, the evaluation was performed by using 3T3-L1 cells, which are preadipocytes, and after the 3T3-L1 cells were treated with each of JAKI and elafibranor at concentrations of 0 μg/ml, 0.16 μg/ml, 0.31 μg/ml, 0.63 μg/ml, 1.25 μg/ml, and 2.5 μg/ml and then cultured for 6 hours under the same conditions, the changes of the IL-6 production were analyzed.

LX-2 cells = assay: Liver fibrosis-related protein expression; conditions: 40 μM, 24 hours
Description: Specifically, the evaluation was performed by using LX-2 cells, which are hepatic stellate cells. LX-2 cells treated with TGF-P1 at a concentration of 5 ng/ml were treated with JAKI at concentrations of 0 μM, 20 μM, and 40 μM, and then cultured under the same conditions for 24 hours. Thereafter, the protein expression levels of TGF-131, collagen type-1, MMP-2, TIMP1, and GAPDH, and the protein expression ratios of TGF-131, collagen type-1, MMP-2, and TIMP1 compared to GAPDH were analyzed.
Specifically, the evaluation was performed by using LX-2 cells, which are hepatic stellate cells. The LX-2 cells treated with 5 ng/ml TGF-P1 were treated with elafibranor at concentrations of 0 μM, 20 μM, 40 μM, and 80 μM in the control group of the present invention, and the cultured for 24 hours under the same conditions. Then, the protein expression ratios of TGF-131, collagen type-1, MMP-2, and TIMP1 compared to GAPDH were analyzed.

3T3-L1 cells [3] = assay: TNF-a induced MCP-1 production in preadipocytes; conditions: 0.16 to 2.5 μg/ml
Description: To confirm the non-alcoholic steatohepatitis inhibitory effect of the Centipeda minima extract, an experiment was performed with TNF-a induced MCP-1 production in preadipocytes according to an inflammatory disease treatment agent.
as §1, with “MCP-1” for “IL-6”

Q: `CSc1ccc(C(=O)/C=C/c2cc(C)c(OC(C)(C)C(=O)O)c(C)c2)cc1` [elafibranor] was tested. Which “concentration from which adipocyte differentiation is inhibited” value (3T3-L1 cells [1]) did it give?
A: The value was ≥ 0.63 µg/mL.

Q: What about the “change in the IL-6 production” value (3T3-L1 cells [2]) of the same compound?
A: Its value is “no change”.

Q: And the “expression ratio of MMP-2 protein compared to GAPDH” value (LX-2 cells)?
A: The value was “decreased”.

Q: What about the “expression ratio of TGF-β1 protein compared to GAPDH” value (LX-2 cells) of the same compound?
A: The value was “decreased”.

Q: And the “expression ratio of TIMP1 protein compared to GAPDH” value (LX-2 cells)?
A: The value was “decreased”.

Q: What about the “expression ratio of collagen type-1 protein compared to GAPDH” value (LX-2 cells) of the same compound?
A: The value was “decreased”.

Q: What about the “change in the MCP-1 production” value (3T3-L1 cells [3]) of the same compound?
A: Its value is “no change”.
